Test results reported in ChEMBL document CHEMBL2396653, “Synthesis and antimycobacterial evaluation of N-substituted 5-chloropyrazine-2-carboxamides” (Bioorg Med Chem Lett, 2013).
≈ marks a conversion by molar mass, not a printed value. Calls of active or inactive are those of the source. The rule behind the calls is not given here.

Key:
[1] = system: Trichophyton mentagrophytes; experiment: Antifungal activity against Trichophyton mentagrophytes 445 assessed as growth inhibition after 72 to 120 hrs by microbroth dilution method; assay type: functional, organism-based
[2] = Stability of the compound at pH 7; assay type: physicochemical; conditions: buffer
[3] = system: Mycobacterium tuberculosis; experiment: Antimycobacterial activity against Mycobacterium tuberculosis H37Rv assessed as growth inhibition after 14 days by microdilution method; assay type: functional; conditions: 336 h
Staphylococcus aureus [4] = experiment: Antibacterial activity against Staphylococcus aureus CCM 4516/08 assessed as growth inhibition after 24 to 48 hrs by microbroth dilution method; assay type: functional, organism-based
Mycobacterium avium [5] = experiment: Antimycobacterial activity against Mycobacterium avium CNCTC My 152/73 assessed as growth inhibition after 14 days by microdilution method; assay type: functional; conditions: CNCTC My 152/73, 336 h
Mycobacterium kansasii [6] = experiment: Antimycobacterial activity against Mycobacterium kansasii CNCTC My 235/80 assessed as growth inhibition after 14 days by microdilution method; assay type: functional; conditions: CNCTC My 235/80, 336 h
Trichosporon asahii = experiment: Antifungal activity against Trichosporon asahii 1188 assessed as growth inhibition after 24 to 48 hrs by microbroth dilution method; assay type: functional, organism-based
Candida albicans = experiment: Antifungal activity against Candida albicans ATCC 44859 assessed as growth inhibition after 24 to 48 hrs by microbroth dilution method; assay type: functional, organism-based
Klebsiella pneumoniae [7] = experiment: Antibacterial activity against Klebsiella pneumoniae D 11750/08 clinical isolate assessed as growth inhibition after 24 to 48 hrs by microbroth dilution method; assay type: functional, organism-based
[8] = system: Mycobacterium tuberculosis; experiment: Ratio of pyrazinamide MIC to compound MIC for Mycobacterium tuberculosis H37Rv; assay type: functional
Lichtheimia corymbifera = experiment: Antifungal activity against Absidia corymbifera 272 assessed as growth inhibition after 24 to 48 hrs by microbroth dilution method; assay type: functional, organism-based
[9] = system: Staphylococcus epidermidis; experiment: Antibacterial activity against Staphylococcus epidermidis H 6966/08 clinical isolate assessed as growth inhibition after 24 to 48 hrs by microbroth dilution method; assay type: functional, organism-based
Mycobacterium avium [10] = experiment: Antimycobacterial activity against Mycobacterium avium CNCTC My 80/72 assessed as growth inhibition after 14 days by microdilution method; assay type: functional; conditions: CNCTC My 80/72, 336 h
Pichia kudriavzevii = experiment: Antifungal activity against Candida krusei E28 assessed as growth inhibition after 24 to 48 hrs by microbroth dilution method; assay type: functional, organism-based
[11] = Lipophilicity, log K of the compound by HPLC analysis; assay type: physicochemical
Enterococcus = experiment: Antibacterial activity against Enterococcus sp. J 14365/08 clinical isolate assessed as growth inhibition after 24 to 48 hrs by microbroth dilution method; assay type: functional, organism-based
Candida tropicalis = experiment: Antifungal activity against Candida tropicalis 156 assessed as growth inhibition after 24 to 48 hrs by microbroth dilution method; assay type: functional, organism-based
Escherichia coli = experiment: Antibacterial activity against Escherichia coli CCM 4517 assessed as growth inhibition after 24 to 48 hrs by microbroth dilution method; assay type: functional, organism-based
Pseudomonas aeruginosa = experiment: Antibacterial activity against Pseudomonas aeruginosa CCM 1961 assessed as growth inhibition after 24 to 48 hrs by microbroth dilution method; assay type: functional, organism-based
Aspergillus fumigatus = experiment: Antifungal activity against Aspergillus fumigatus 231 assessed as growth inhibition after 24 to 48 hrs by microbroth dilution method; assay type: functional, organism-based
Nakaseomyces glabratus = experiment: Antifungal activity against Candida glabrata 20/I assessed as growth inhibition after 24 to 48 hrs by microbroth dilution method; assay type: functional, organism-based
Klebsiella pneumoniae [12] = experiment: Antibacterial activity against ESBL-positive Klebsiella pneumoniae J 14368/08 clinical isolate assessed as growth inhibition after 24 to 48 hrs by microbroth dilution method; assay type: functional, organism-based
Staphylococcus aureus [13] = experiment: Antibacterial activity against methicillin-resistant Staphylococcus aureus H 5996/08 clinical isolate assessed as growth inhibition after 24 to 48 hrs by microbroth dilution method; assay type: functional, organism-based
[14] = system: Mycobacterium tuberculosis; experiment: Antimycobacterial activity against pyrazinamide-susceptible Mycobacterium tuberculosis ATCC 35801 assessed as growth inhibition after 24 hrs to 2 weeks by microbroth dilution method; assay type: functional
[15] = system: Mycolicibacterium fortuitum; experiment: Antimycobacterial activity against pyrazinamide-resistant Mycobacterium fortuitum ATCC 49403 assessed as growth inhibition after 24 hrs to 2 weeks by microbroth dilution method; assay type: functional
Mycobacterium kansasii [16] = experiment: Antimycobacterial activity against pyrazinamide-resistant Mycobacterium kansasii assessed as growth inhibition after 24 hrs to 2 weeks by microbroth dilution method; assay type: functional
[17] = system: Mycolicibacterium fortuitum; experiment: Antimycobacterial activity against pyrazinamide-resistant Mycobacterium fortuitum ATCC 49601 assessed as growth inhibition after 24 hrs to 2 weeks by microbroth dilution method; assay type: functional
[18] = system: Mycobacterium tuberculosis; experiment: Antimycobacterial activity against pyrazinamide-susceptible Mycobacterium tuberculosis ATCC 27294 assessed as growth inhibition after 24 hrs to 2 weeks by microbroth dilution method; assay type: functional

SMILES | growth inhibition (GI) [1] | Stability [2] | MIC [3] | growth inhibition (GI) (Staphylococcus aureus [4]) | MIC (Mycobacterium avium [5]) | MIC (Mycobacterium kansasii [6]) | growth inhibition (GI) (Trichosporon asahii) | growth inhibition (GI) (Candida albicans) | growth inhibition (GI) (Klebsiella pneumoniae [7]) | growth inhibition (GI) (Lichtheimia corymbifera) | growth inhibition (GI) [9] | MIC (Mycobacterium avium [10]) | growth inhibition (GI) (Pichia kudriavzevii) | log K [11] | growth inhibition (GI) (Enterococcus) | growth inhibition (GI) (Candida tropicalis) | growth inhibition (GI) (Escherichia coli) | growth inhibition (GI) (Pseudomonas aeruginosa) | growth inhibition (GI) (Aspergillus fumigatus) | growth inhibition (GI) (Nakaseomyces glabratus) | also measured
O=C(NCc1ccc(Cl)cc1Cl)c1cnc(Cl)cn1 | inactive | Stable | 12.5 µg/mL (≈ 39.5 µM) | inactive | > 100 µg/mL | > 100 µg/mL | inactive | inactive | inactive | inactive | inactive | > 100 µg/mL | inactive | 0.727 | inactive | inactive | inactive | inactive | inactive | inactive | Ratio [8]: 3; growth inhibition (GI) (Klebsiella pneumoniae [12]): inactive; growth inhibition (GI) (Staphylococcus aureus [13]): inactive
NC(=O)c1cnc(Cl)cn1 |  |  |  |  |  |  |  |  |  |  |  |  |  |  |  |  |  |  |  |  | MIC [14]: 16 µg/mL (≈ 102 µM); MIC [15]: 8 µg/mL (≈ 50.8 µM); MIC (Mycobacterium kansasii [16]): 8 µg/mL (≈ 50.8 µM); MIC [17]: 8 µg/mL (≈ 50.8 µM); MIC [18]: 16 µg/mL (≈ 102 µM)
COc1ccc(CNC(=O)c2cnc(Cl)cn2)c(OC)c1 | inactive | Stable | > 100 µg/mL | inactive | > 100 µg/mL | > 100 µg/mL | inactive | inactive | inactive | inactive | inactive | > 100 µg/mL | inactive | 0.2266 | inactive | inactive | inactive | inactive | inactive | inactive | growth inhibition (GI) (Klebsiella pneumoniae [12]): inactive; growth inhibition (GI) (Staphylococcus aureus [13]): inactive
O=C(NCc1ccc(Br)cc1)c1cnc(Cl)cn1 | inactive | Stable | 12.5 µg/mL (≈ 38.3 µM) | inactive | > 100 µg/mL | 50 µg/mL (≈ 153 µM) | inactive | inactive | inactive | inactive | inactive | > 100 µg/mL | inactive | 0.4981 | inactive | inactive | inactive | inactive | inactive | inactive | Ratio [8]: 3; growth inhibition (GI) (Klebsiella pneumoniae [12]): inactive; growth inhibition (GI) (Staphylococcus aureus [13]): inactive
O=C(NCc1ccccc1C(F)(F)F)c1cnc(Cl)cn1 | inactive | Stable | 25 µg/mL (≈ 79.2 µM) | inactive | > 100 µg/mL | 100 µg/mL (≈ 317 µM) | inactive | inactive | inactive | inactive | inactive | > 100 µg/mL | inactive | 0.4851 | inactive | inactive | inactive | inactive | inactive | inactive | growth inhibition (GI) (Klebsiella pneumoniae [12]): inactive; growth inhibition (GI) (Staphylococcus aureus [13]): inactive
Cc1ccccc1CNC(=O)c1cnc(Cl)cn1 | inactive | Stable | 50 µg/mL (≈ 191 µM) | inactive | > 100 µg/mL | 25 µg/mL (≈ 95.5 µM) | inactive | inactive | inactive | inactive | inactive | > 100 µg/mL | inactive | 0.3947 | inactive | inactive | inactive | inactive | inactive | inactive | growth inhibition (GI) (Klebsiella pneumoniae [12]): inactive; growth inhibition (GI) (Staphylococcus aureus [13]): inactive
O=C(Nc1ccc(Br)cc1)c1cnc(Cl)cn1 | inactive | Stable | 3.13 µg/mL (≈ 10 µM) | inactive | > 100 µg/mL | 6.25 µg/mL (≈ 20 µM) | inactive | inactive | inactive | inactive | inactive | > 100 µg/mL | inactive | 0.6601 | inactive | inactive | inactive | inactive | inactive | inactive | growth inhibition (GI) (Klebsiella pneumoniae [12]): inactive; growth inhibition (GI) (Staphylococcus aureus [13]): inactive
O=C(NCc1ccccc1F)c1cnc(Cl)cn1 | inactive | Stable | 25 µg/mL (≈ 94.1 µM) | inactive | > 100 µg/mL | 50 µg/mL (≈ 188 µM) | inactive | inactive | inactive | inactive | inactive | > 100 µg/mL | inactive | 0.3395 | inactive | inactive | inactive | inactive | inactive | inactive | growth inhibition (GI) (Klebsiella pneumoniae [12]): inactive; growth inhibition (GI) (Staphylococcus aureus [13]): inactive
